The subject of series [1] is Staphylococcus aureus. The experiment in a line: Antibacterial activity (MIC in MH broth). The following applies: for MIC: Staphylococcus aureus; for inhibition of bacterial growth (result in words): at 100 μM. Type of series: cell-based.
The test system of series [2] is agr. The experiment in a line: microbe, parasite or virus in culture. In kind it is cell-based, Staphylococcus aureus. Conditions: for IC50: Staphylococcus aureus, read-out: agr IC50; for difference between MIC and agr IC50: MIC relative to agr IC50; for effect of double bond in acyl chain on activity: S18 cf. 15, S19 cf. 16.
For series [3], the system named is AgrC-1. Type of series: cell-based, Staphylococcus aureus. The following applies: for competition with AIP-1 for cognate AgrC: blaZ-based agrP3 reporter.
In series [4] the target is S. aureus membranes. Also on record: species or system Staphylococcus aureus. The following applies: read-out: Kd (membrane binding).
Series [5] has as its system adherence of S. aureus to human nasal squamous cells. Type of series: cell-based, Staphylococcus aureus.
On the set-up of series [6]: method as in PMID 15623555, PMID 22178671. Conditions: cited from earlier work.
Series [7] deals with S. aureus strain Newman. Conditions: mouse, in vivo.
The test system of series [8] is S. aureus USA300. Type of series: cell-based, Staphylococcus aureus. The following applies: 4 at up to 100 μM.
The test system of series [9] is C. difficile. On the set-up: method as in PMID 19917748. Conditions: cited from earlier work.
For series [10], the system named is P. aeruginosa. On the set-up: method as in PMID 21502732. The following applies: cited from earlier work.

Values after ≈ are worked out from the molar mass of the structure shown. “Also recorded” adds a separate entry of the source. Read-outs that look alike come from different tables or passages of the source. Some results are limits rather than exact numbers.

Turning to `CCCCCCCCCC(=O)CC(=O)N[C@@H](CCO)C(=O)O` [Compound S1, N-(3-oxododecanoyl)-L-homoserine], the MIC (as a rule, the smallest concentration in the dilution series that meets the test's criterion for growth inhibition) in series [1] was above 100 µM. In addition, in series [2], the “inhibited agr (result in words)” value was “neither” and the IC50 – broadly, the concentration that inhibits the measured activity by half – is above 100 µM.

As for `CCCCCCCCOC(=O)CC(=O)N[C@H]1CCOC1=O` [Compound S12], in series [1], the MIC was above 100 µM. In addition, the IC50 in series [2] was above 100 µM.

Compound `CCCCCCCCCC(=O)CC(=O)C1=C(O)COC1=O` [Compound S24] had an MIC in series [1] above 100 µM. Besides, in series [2], the half-inhibitory concentration (IC50) is above 100 µM.

On to `CCCCCCCCCC/C(O)=C1/C(=O)N[C@@H](CCO)C1=O` [Compound 6], for which, in [2], the “difference between MIC and agr IC50” value was 5 fold.

For the compound `CCCCCC(=O)C1=C(O)COC1=O` [Compound 14], the MIC in series [1] is above 100 µM.

Regarding `CCCCCCCCNC(=O)CC(=O)N[C@H]1CCOC1=O` [Compound S10], in series [1], the MIC was above 100 µM. Also, the half-maximal inhibitory concentration (IC50) in [2] is above 100 µM.

Regarding `CCCCCCCCC/C(O)=C1/C(=O)N[C@@H](C)C1=O` [Compound 12, (S)-3-Decanoyl-5-methyltetramic acid], the “inhibited agr (result in words)” value in series [2] is reported as “enhanced agr inhibitory activity”.

In series [1], `O=C1N[C@@H](CCO)C(=O)/C1=C(/O)Cc1ccc([N+](=O)[O-])cc1` [Compound 11] had an MIC above 100 µM. For the same compound, the IC50 in series [2] was above 100 µM.

`CCCCCCCCCC(=O)CC(=O)N[C@H]1CCNC1=O` [Compound S5] returned an MIC in [1] above 100 µM. For the same compound, the IC50 in series [2] was above 100 µM.

Compound `O=C(CCCC1CCCCC1)CC(=O)N[C@H]1CCOC1=O` [Compound S16] registered an MIC in [1] above 100 µM. The IC50 in series [2] is above 100 µM.

In [1], `CCCCCCCCCC(O)CC(=O)N[C@H]1CCOC1=O` (some centres unmarked) [Compound S9] gave an MIC above 100 µM. For the same compound, the IC50 in series [2] is above 100 µM.

On to `CCCCCCCCCCCC(=O)C1=C(O)COC1=O` [Compound 16, 3-Dodecanoyltetronic Acid], for which, in series [3] (16 versus 1 and 5), the “fold more potent in preventing AIP-mediated activation of AgrC” value is listed as “at least 5 fold”. In series [3], the “competition with AIP-1 for cognate AgrC” value was “do not compete”. In addition, the Kd (in general, the equilibrium constant for the complex coming apart) in series [4] is 72 µM.

`O=C(Cc1ccc(Br)cc1)C1=C(O)COC1=O` [Compound S21] gave an MIC in [1] above 100 µM. In series [2], the IC50 was above 100 µM.

Compound `CCCCCCCCN(C)C(=O)CC(=O)N[C@H]1CCOC1=O` [Compound S11] yielded an MIC in series [1] above 100 µM. The IC50 in [2] was above 100 µM.

Take `CCCCCCCCCC(=O)CC(=O)N[C@H]1CCC(=O)NC1=O` [Compound S6]: the MIC in [1] is above 100 µM. Besides, the IC50 in [2] was above 100 µM.

In turn, `CCCCCCCCCC(=O)CC(=O)N[C@H]1CC(=O)NC1=O` [Compound S7] gave an MIC in [1] above 100 µM. In series [2], the IC50 is above 100 µM.

In turn, `CCCCCCCCCC(=O)CC(=O)N[C@H]1CCSC1=O` [Compound S4] yielded an MIC in series [1] above 100 µM. In series [2], the IC50 is above 100 µM.

On to `CCCC(=O)CC(=O)C1=C(O)COC1=O` [Compound S23], for which, in series [1], the MIC is above 100 µM. Moreover, the IC50 in series [2] was above 100 µM.

In the case of `CCCCCCCCC/C(O)=C1\C(=O)CNC1=O` [Compound 13, 3-decanoyltetramic acid], the “inhibited agr (result in words)” value in series [2] is listed as “enhanced agr inhibitory activity”.

`CCCCCCCCCCCCC/C(O)=C1/C(=O)N[C@@H](CCO)C1=O` [Compound 8]: the “fold lower MIC” value in series [1] (versus 5 (MIC 100 μM)) came to 8 fold. Also, in series [2], the “difference between MIC and agr IC50” value is given as “little different”. The Kd in [4] was 2 µM.

In the case of `CCCCCCCCCC(=O)CC(=O)O[C@H]1CCOC1=O` [Compound S13], in series [1] (S. aureus, Table S1, read-out: MIC), the MIC was above 100 µM. For the same compound, in series [2], the IC50 was above 100 µM.

Turning to `CCCCCCCCCC(=O)CC(=O)N[C@H]1CCOC1=O` [Compound 1, N-(3-oxododecanoyl)-L-homoserine lactone], the MIC in series [1] (S. aureus, MH broth, Table 1, read-out: MIC) is 100 µM (≈ 29.7 µg/mL). In addition, in [3], the “competition with AIP-1 for cognate AgrC” value was “do not compete”. Also, the Kd in [4] came out at 270 µM.

Consider `CCCCCCCCCCCC(=O)N[C@H]1CCOC1=O` [Compound S8], for which the minimum inhibitory concentration (MIC) in [1] is above 100 µM. The IC50 in series [2] is above 100 µM.

In [1], `O=C(CCCc1ccccc1)CC(=O)N[C@H]1CCOC1=O` [Compound S15] yielded an MIC above 100 µM. Also, the IC50 in [2] was above 100 µM.

The compound `O=C1N[C@@H](CCO)C(=O)/C1=C(/O)CCCC1CCCCC1` [Compound 10] registered an MIC in [1] above 100 µM. For the same compound, in series [2], the IC50 was above 100 µM.

As to `CCCCCCCCC/C(O)=C1/C(=O)N[C@@H](CCO)C1=O` [Compound 5, (S)-3-Decanoyl-5-(2-hydroxyethyl)tetramic Acid], in series [5], the “attachment of S. aureus to human squamous cells” value is given as “substantially reduced attachment”. Moreover, the “ferric ion chelator (result in words)” value in series [6] is “ferric ion chelators”. Further, the “competition with AIP-1 for cognate AgrC” value in series [3] was “do not compete”. Moreover, the “decrease of maximum level of activation by AIP-1” value in series [3] (increasing concentrations of 5 from 0 to 100 μM) was “over 10 fold”. In addition, the Kd in series [4] was found to be 222 µM. Also, the “activity in murine infection model” value in [7] is “inactive”.

`CC(C)CCCCCCC(=O)C1=C(O)COC1=O` [Compound S17] yielded an MIC in [1] above 100 µM. In [2], the IC50 is above 100 µM.

With `CCCCCCCCCCC/C(O)=C1/C(=O)N[C@@H](CCO)C1=O` [Compound 7, (S)-3-Dodecanoyl-5-(2-hydroxyethyl)tetramic Acid], the Kd in series [4] turned out to be 23 µM.

As to `CCCCC/C=C/CCC(=O)C1=C(O)COC1=O` [Compound S18], the “effect of double bond in acyl chain on activity” value in [2] is on record as “little effect on activity”.

In series [1], `CCCCCCCCCC(=O)CC(=O)Nc1nccs1` [Compound S3] showed an MIC above 100 µM. Further, the IC50 in series [2] is above 100 µM.

With `O=C(COc1ccc(Br)cc1)C1=C(O)COC1=O` [Compound S22], in series [1], the MIC is above 100 µM. The half-inhibitory concentration (IC50) in series [2] is above 100 µM.

For the compound `CCCCCCCCCC(=O)CC(N)=O` [Compound S2, 3-oxododecanamide], the minimal inhibitory concentration (MIC) in [1] is above 100 µM. Besides, in series [2], the “inhibited agr (result in words)” value is reported as “neither” and the IC50 was above 100 µM.

`O=C(Cc1ccc([N+](=O)[O-])cc1)C1=C(O)COC1=O` [Compound S20] registered an MIC in [1] above 100 µM. The IC50 in [2] was above 100 µM.

As to `CCCCCCCCCC(=O)CC(=O)N[C@@H]1CCOC1=O` [Compound 2], the “fold less active in agr inhibition than L-isomer 1” value in [2] (D-isomer 2 versus 1) is reported as “approximately 2 fold”.

In the case of `CCCCCCC/C(O)=C1/C(=O)N[C@@H](CCO)C1=O` [Compound 4], in [1], the MIC was above 100 µM and the “inhibition of bacterial growth (result in words)” value is “did not inhibit growth”. Also, in [8], the “staphylococcal growth” value is recorded as “without affecting staphylococcal growth; also recorded: without inhibiting the growth”.

For the compound `CCC/C(O)=C1/C(=O)N[C@@H](CCO)C1=O` [Compound 3], in series [1], the MIC is above 100 µM and the “inhibition of bacterial growth (result in words)” value is “did not inhibit growth”. The “killing of C. difficile” value in [9] is given as “not C. difficile”. Besides, the IC50 in [2] was above 100 µM. In addition, in series [10], the “killing of P. aeruginosa” value is “kill P. aeruginosa”.

Turning to `CCCCCCCCCC(=O)C1=C(O)COC1=O` [Compound 15], in series [4], the Kd was 258 µM.

`CCCCCCCCCCCCCCCC(=O)C1=C(O)COC1=O` [Compound 18] registered an MIC in [1] above 100 µM.

`CCCCC/C=C/CCC(=O)CC(=O)N[C@H]1CCOC1=O` [Compound S14] came in with an MIC in [1] above 100 µM. In addition, the IC50 in [2] was above 100 µM.

In series [1], `CCCCCCCCC/C(O)=C1/C(=O)N[C@H](CCO)C1=O` [Compound 9] had an MIC above 100 µM. Also, the “fold improvement of agr inhibitory activity” value in series [2] ((R)-9 versus (S)-5) was 1.5 fold.

Take `CCCCCC/C=C\CCCC(=O)C1=C(O)COC1=O` [Compound S19]: the MIC in [1] was above 100 µM. Besides, the “effect of double bond in acyl chain on activity” value in [2] is recorded as “almost abolished”.

Source of the values: PMC4010551, “Targeting Staphylococcus aureus Quorum Sensing with Nonpeptidic Small Molecule Inhibitors” (Journal of Medicinal Chemistry, 2014).
